Laboratory results reported in patent US9150546B2, “Triazine derivative and pharmaceutical composition comprising the same” (SHIONOGI & CO., LTD., priority 2009, dated 2015).
pIC50: −log10 of the molar value.

molecular target: human P2X3 receptor (Homo sapiens (Human), UniProt P56373); experiment: P2X3 receptor inhibition, ATP-evoked Fluo-3 fluorescence (FDSS 3000); type: cell-based; settings: C6BU-1 cell transfected with human P2X3 receptor gene
Sequence (P56373 whole entry): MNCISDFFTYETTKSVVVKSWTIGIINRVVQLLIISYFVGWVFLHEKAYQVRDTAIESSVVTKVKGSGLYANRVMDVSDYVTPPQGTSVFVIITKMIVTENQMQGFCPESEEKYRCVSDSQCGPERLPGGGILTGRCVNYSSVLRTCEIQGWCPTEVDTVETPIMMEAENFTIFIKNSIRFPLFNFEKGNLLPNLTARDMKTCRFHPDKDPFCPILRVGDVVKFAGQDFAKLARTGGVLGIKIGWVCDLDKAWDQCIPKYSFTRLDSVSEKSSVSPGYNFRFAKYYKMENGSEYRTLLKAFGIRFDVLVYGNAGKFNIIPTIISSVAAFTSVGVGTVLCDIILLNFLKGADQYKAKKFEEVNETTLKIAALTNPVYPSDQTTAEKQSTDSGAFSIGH

Row | SMILES | pIC50
1 | CCOC(=O)c1ccccc1Cn1c(=O)[nH]/c(=N\c2ccc(OC(C)C)c(F)c2)n(Cc2ccc(Cl)cc2)c1=O [I-454] | 7.62
2 | CC(C)Oc1ccc(/N=c2\[nH]c(=O)n(C[C@@H](C)C(=O)O)c(=O)n2Cc2ccc(Cl)cc2)cc1F [I-455] | 7.52
3 | CC(C)Oc1ccc(/N=c2\[nH]c(=O)n(C[C@H](C)C(=O)O)c(=O)n2Cc2ccc(Cl)cc2)cc1F [I-456] | 8.10
4 | COC(=O)[C@H](C)Cn1c(=O)[nH]/c(=N\c2ccc(OC(C)C)c(Cl)c2)n(Cc2ccc(Cl)cc2)c1=O [I-457] | 8.52
5 | COC(=O)[C@@H](C)Cn1c(=O)[nH]/c(=N\c2ccc(OC(C)C)c(Cl)c2)n(Cc2ccc(Cl)cc2)c1=O [I-458] | 8.40
6 | CC(C)Oc1ccc(/N=c2\[nH]c(=O)n(Cc3ccccc3C(=O)O)c(=O)n2Cc2ccc(Cl)cc2)cc1F [I-459] | 7.41
7 | CC(C)Oc1ccc(/N=c2\[nH]c(=O)n(C[C@@H](C)C(=O)O)c(=O)n2Cc2ccc(Cl)cc2)cc1Cl [I-460] | 7.80
8 | CC(C)Oc1ccc(/N=c2\[nH]c(=O)n(C[C@H](C)C(=O)O)c(=O)n2Cc2ccc(Cl)cc2)cc1Cl [I-461] | 8.05
9 | CCOc1ccc(/N=c2\[nH]c(=O)n(CC(C)(C)C(=O)OC)c(=O)n2Cc2ccc(Cl)cc2)cc1C [I-462] | 8.40
10 | Cc1ccc(/N=c2\[nH]c(=O)n(CC(C)(C)C(=O)O)c(=O)n2Cc2ccc(Cl)cc2)cc1C [I-464] | 6.25
11 | CCOc1ccc(/N=c2\[nH]c(=O)n(CC(C)(C)C(=O)O)c(=O)n2Cc2ccc(Cl)cc2)cc1C [I-465] | 7.24
12 | COC(=O)C(C)(C)Cn1c(=O)[nH]/c(=N\c2cccc(Cl)c2)n(Cc2ccc(Cl)cc2)c1=O [I-466] | 7.43
13 | COC(=O)C(C)(C)Cn1c(=O)[nH]/c(=N\c2cccc(OC(F)(F)F)c2)n(Cc2ccc(Cl)cc2)c1=O [I-467] | 7.43
14 | CC(C)(Cn1c(=O)[nH]/c(=N\c2cccc(Cl)c2)n(Cc2ccc(Cl)cc2)c1=O)C(=O)O [I-468] | 6.86
15 | CC(C)(Cn1c(=O)[nH]/c(=N\c2cccc(OC(F)(F)F)c2)n(Cc2ccc(Cl)cc2)c1=O)C(=O)O [I-469] | 7.00
16 | COC(=O)C(C)(C)Cn1c(=O)[nH]/c(=N\c2ccc3[nH]ccc3c2)n(Cc2ccc(Cl)cc2)c1=O [I-470] | 7.10
17 | COC(=O)C(C)(C)Cn1c(=O)[nH]/c(=N\c2cccc(C(F)(F)F)c2)n(Cc2ccc(Cl)cc2)c1=O [I-471] | 7.62
18 | COC(=O)C(C)(C)Cn1c(=O)[nH]/c(=N\c2ccc(OC(C)C)nc2)n(Cc2ccc(Cl)cc2)c1=O [I-473] | 6.23
19 | COC(=O)C(C)n1c(=O)[nH]/c(=N\c2ccc(OC(C)C)c(F)c2)n(Cc2ccc(Cl)cc2)c1=O (stereo not shown) [I-474] | 7.85
20 | CC(C)Oc1ccc(/N=c2\[nH]c(=O)n(C(C)C(=O)O)c(=O)n2Cc2ccc(Cl)cc2)cc1F (stereo not shown) [I-475] | 6.24
21 | CC(C)(Cn1c(=O)[nH]/c(=N\c2cccc(C(F)(F)F)c2)n(Cc2ccc(Cl)cc2)c1=O)C(=O)O [I-476] | 7.46
22 | CC(C)(Cn1c(=O)[nH]/c(=N\c2ccc(Cl)c(Cl)c2)n(Cc2ccc(Cl)cc2)c1=O)C(=O)O [I-477] | 7.25
23 | CC(C)(Cn1c(=O)[nH]/c(=N\c2ccc3[nH]ccc3c2)n(Cc2ccc(Cl)cc2)c1=O)C(=O)O [I-478] | 6.20
24 | COC(=O)[C@H](C)Cn1c(=O)[nH]/c(=N\c2ccc(OC(C)C)cc2)n(Cc2ccc(Cl)cc2)c1=O [I-479] | 8.15
25 | CCOc1ccc(/N=c2\[nH]c(=O)n(C[C@@H](C)C(=O)OC)c(=O)n2Cc2ccc(Cl)cc2)cc1 [I-480] | 7.92

Row | SMILES | pIC50
26 | CCOc1ccc(/N=c2\[nH]c(=O)n(C[C@@H](C)C(=O)OC)c(=O)n2Cc2ccc(Cl)cc2)cc1C [I-481] | 7.92
27 | CC(C)Oc1ccc(/N=c2\[nH]c(=O)n(C[C@@H](C)C(=O)O)c(=O)n2Cc2ccc(Cl)cc2)cc1 [I-483] | 7.00
28 | CCOc1ccc(/N=c2\[nH]c(=O)n(C[C@@H](C)C(=O)O)c(=O)n2Cc2ccc(Cl)cc2)cc1 [I-484] | 6.54
29 | CCOc1ccc(/N=c2\[nH]c(=O)n(C[C@@H](C)C(=O)O)c(=O)n2Cc2ccc(Cl)cc2)cc1C [I-485] | 6.70
30 | Cc1cc(/N=c2\[nH]c(=O)n(C[C@@H](C)C(=O)O)c(=O)n2Cc2ccc(Cl)cc2)ccc1OC(C)C [I-486] | 7.38
31 | CCOc1ccc(/N=c2\[nH]c(=O)n(C[C@@H](C)C(=O)O)c(=O)n2Cc2ccc(Cl)cc2)cc1Cl [I-487] | 7.57
32 | COC(=O)C(C)(C)Cn1c(=O)[nH]/c(=N\c2ccc3oc(C)nc3c2)n(Cc2ccc(Cl)cc2)c1=O [I-488] | 6.91
33 | COC(=O)C(C)(C)Cn1c(=O)[nH]/c(=N\c2ccc3oc(C)cc3c2)n(Cc2ccc(Cl)cc2)c1=O [I-489] | 8.00
34 | COC(=O)C(C)(C)Cn1c(=O)[nH]/c(=N\c2ccc(CN(C)C)c(Cl)c2)n(Cc2ccc(Cl)cc2)c1=O [I-490] | 7.34
35 | Cc1cc2cc(/N=c3\[nH]c(=O)n(CC(C)(C)C(=O)O)c(=O)n3Cc3ccc(Cl)cc3)ccc2o1 [I-491] | 7.57
36 | CCn1ccc2cc(/N=c3\[nH]c(=O)n(CC(C)(C)C(=O)OC)c(=O)n3Cc3ccc(Cl)cc3)ccc21 [I-492] | 6.99
37 | CCn1ccc2cc(/N=c3\[nH]c(=O)n(CC(C)(C)C(=O)O)c(=O)n3Cc3ccc(Cl)cc3)ccc21 [I-493] | 6.02
38 | COC(=O)C(C)(C)Cn1c(=O)[nH]/c(=N\c2ccc3nc(C)oc3c2)n(Cc2ccc(Cl)cc2)c1=O [I-494] | 7.47
39 | CN(C)Cc1ccc(/N=c2\[nH]c(=O)n(CC(C)(C)C(=O)O)c(=O)n2Cc2ccc(Cl)cc2)cc1Cl [I-495] | 6.90
40 | Cc1nc2ccc(/N=c3\[nH]c(=O)n(CC(C)(C)C(=O)O)c(=O)n3Cc3ccc(Cl)cc3)cc2o1 [I-496] | 6.90
41 | Cc1nc2cc(/N=c3\[nH]c(=O)n(CC(C)(C)C(=O)O)c(=O)n3Cc3ccc(Cl)cc3)ccc2o1 [I-497] | 6.34
42 | CCOC(=O)CCCn1c(=O)[nH]/c(=N\c2ccc(OC(C)C)c(Cl)c2)n(Cc2ccc(Cl)cc2)c1=O [I-498] | 8.05
43 | Cc1cc(/N=c2\[nH]c(=O)[nH]c(=O)n2Cc2ccc(Cl)cc2)ccc1OC(C)C [I-499] | 6.86
44 | CC(C)Oc1ccc(/N=c2\[nH]c(=O)n(CCCC(=O)O)c(=O)n2Cc2ccc(Cl)cc2)cc1Cl [I-500] | 7.89
45 | Cc1cc2cc(/N=c3\[nH]c(=O)[nH]c(=O)n3Cc3ccc(Cl)cc3)ccc2o1 [I-501] | 6.72
46 | CCOC(=O)CCCn1c(=O)[nH]/c(=N\c2ccc(OC(C)C)c(C)c2)n(Cc2ccc(Cl)cc2)c1=O [I-502] | 7.70
47 | Cc1cc(/N=c2\[nH]c(=O)n(CCCC(=O)O)c(=O)n2Cc2ccc(Cl)cc2)ccc1OC(C)C [I-503] | 7.30
48 | CCOC(=O)CCCn1c(=O)[nH]/c(=N\c2ccc3oc(C)cc3c2)n(Cc2ccc(Cl)cc2)c1=O [I-504] | 7.82
49 | Cc1cc2cc(/N=c3\[nH]c(=O)n(CCCC(=O)O)c(=O)n3Cc3ccc(Cl)cc3)ccc2o1 [I-505] | 6.92
50 | COC(=O)C(C)(C)Cn1c(=O)[nH]/c(=N\c2ccc3c(ccn3CC(C)C)c2)n(Cc2ccc(Cl)cc2)c1=O [I-506] | 6.55

Row | SMILES | pIC50
51 | CCCn1ccc2cc(/N=c3\[nH]c(=O)n(CC(C)(C)C(=O)OC)c(=O)n3Cc3ccc(Cl)cc3)ccc21 [I-507] | 6.52
52 | CC(C)Cn1ccc2cc(/N=c3\[nH]c(=O)n(CC(C)(C)C(=O)O)c(=O)n3Cc3ccc(Cl)cc3)ccc21 [I-508] | 6.29
53 | CCCn1ccc2cc(/N=c3\[nH]c(=O)n(CC(C)(C)C(=O)O)c(=O)n3Cc3ccc(Cl)cc3)ccc21 [I-509] | 6.19
54 | CSc1cccc(/N=c2\[nH]c(=O)n(CC(C)(C)C(=O)O)c(=O)n2Cc2ccc(Cl)cc2)c1 [I-510] | 7.01
55 | COC(=O)[C@@H](C)Cn1c(=O)[nH]/c(=N\c2ccc(OC(C)C)c(F)c2)n(Cc2ccc(C)cc2)c1=O [I-515] | 8.22
56 | Cc1ccc(Cn2c(=O)n(C[C@H](C)C(=O)O)c(=O)[nH]/c2=N\c2ccc(OC(C)C)c(F)c2)cc1 [I-517] | 7.82
57 | Cc1ccc(Cn2c(=O)n(C[C@H](C)C(=O)O)c(=O)[nH]/c2=N\c2ccc(OC(C)C)c(Cl)c2)cc1 [I-518] | 8.15
58 | Cc1ccc(Cn2c(=O)n(CCCC(=O)O)c(=O)[nH]/c2=N\c2ccc(OC(C)C)c(Cl)c2)cc1 [I-519] | 7.92
59 | Cc1ccc(Cn2c(=O)n(CCCC(=O)O)c(=O)[nH]/c2=N\c2ccc3oc(C)cc3c2)cc1 [I-520] | 7.10
60 | CCOC(=O)CCCn1c(=O)[nH]/c(=N\c2ccc(OC(C)C)c(C)c2)n(Cc2ccc(C)cc2)c1=O [I-521] | 8.40
61 | COC(=O)C[C@H](C)n1c(=O)[nH]/c(=N\c2ccc(OC(C)C)c(Cl)c2)n(Cc2ccc(Cl)cc2)c1=O [I-522] | 7.54
62 | COC(=O)C[C@H](C)n1c(=O)[nH]/c(=N\c2ccc(OC(C)C)c(F)c2)n(Cc2ccc(Cl)cc2)c1=O [I-523] | 7.14
63 | COC(=O)C[C@H](C)n1c(=O)[nH]/c(=N\c2ccc(OC(C)C)c(C)c2)n(Cc2ccc(Cl)cc2)c1=O [I-524] | 7.22
64 | Cc1ccc(Cn2c(=O)n(CCCC(=O)O)c(=O)[nH]/c2=N\c2ccc(OC(C)C)c(C)c2)cc1 [I-525] | 7.27
65 | CC(C)Oc1ccc(/N=c2\[nH]c(=O)n([C@@H](C)CC(=O)O)c(=O)n2Cc2ccc(Cl)cc2)cc1Cl [I-526] | 7.62
66 | CC(C)Oc1ccc(/N=c2\[nH]c(=O)n([C@@H](C)CC(=O)O)c(=O)n2Cc2ccc(Cl)cc2)cc1F [I-527] | 7.48
67 | Cc1cc(/N=c2\[nH]c(=O)n([C@@H](C)CC(=O)O)c(=O)n2Cc2ccc(Cl)cc2)ccc1OC(C)C [I-528] | 7.28
68 | COC(=O)[C@@H](C)Cn1c(=O)nc(Nc2ccc(OC(C)C)cc2)n(Cc2ccc(Cl)cc2)c1=O [I-529] | 7.66
69 | CCOc1ccc(Nc2nc(=O)n(C[C@H](C)C(=O)OC)c(=O)n2Cc2ccc(Cl)cc2)cc1 [I-530] | 7.47
70 | COC(=O)[C@@H](C)Cn1c(=O)nc(Nc2ccc(OC(C)C)c(C)c2)n(Cc2ccc(Cl)cc2)c1=O [I-531] | 8.00
71 | CCOc1ccc(Nc2nc(=O)n(C[C@H](C)C(=O)OC)c(=O)n2Cc2ccc(Cl)cc2)cc1C [I-532] | 7.54
72 | CCOc1ccc(Nc2nc(=O)n(C[C@H](C)C(=O)OC)c(=O)n2Cc2ccc(Cl)cc2)cc1Cl [I-533] | 8.00
73 | COC(=O)[C@@H](C)Cn1c(=O)[nH]/c(=N\c2ccc3oc(C)cc3c2)n(Cc2ccc(Cl)cc2)c1=O [I-534] | 7.74
